Measurements published in the NIST ThermoML archive (doi:10.1016/j.jct.2019.03.040).

What was measured:
[1] = Liquid; for thermal diffusivity: 101.33 kPa, Laser flash apparatus; for Critical pressure / Critical temperature: Resistive pulse heating
[2] = molar heat capacity at constant pressure; conditions: 101.33 kPa, Small sample (50 mg) DSC

CCOC(=O)CCC(C)=O [ethyl levulinate]
[1]
Conditions | thermal diffusivity [m2/s]
303.15 K | 7.9e-08
313.15 K | 7.8e-08
323.15 K | 7.7e-08
333.15 K | 7.6e-08
343.15 K | 7.5e-08
353.15 K | 7.4e-08
363.15 K | 7.25e-08
373.15 K | 7.15e-08

[1]
Conditions | Critical pressure [kPa] | Critical temperature [K]
– | 2970 | 669

[2], Liquid
Conditions | molar heat capacity at constant pressure [J/K/mol]
302.98 K | 275.22
303.48 K | 275.79
303.98 K | 276.51
304.48 K | 276.37
304.98 K | 275.65
305.48 K | 276.08
305.98 K | 275.65
306.48 K | 276.08
306.98 K | 276.95
307.48 K | 277.24
307.98 K | 277.67
308.48 K | 277.52
308.98 K | 277.38
309.48 K | 277.67
309.98 K | 277.96
310.48 K | 278.53
310.98 K | 278.82
311.48 K | 277.96
311.98 K | 278.24
312.48 K | 277.24
312.98 K | 278.53
313.48 K | 278.82
313.98 K | 279.25
314.48 K | 279.25
314.98 K | 279.25
315.48 K | 278.53
315.98 K | 279.25
316.48 K | 278.68
316.98 K | 278.97
317.48 K | 279.69
317.98 K | 279.4
318.48 K | 279.83
318.98 K | 279.69
319.48 K | 279.83
319.98 K | 279.54
320.48 K | 280.55
320.98 K | 280.98
321.48 K | 280.7
321.98 K | 279.97
322.48 K | 280.55
322.98 K | 280.84
323.48 K | 281.42
323.98 K | 281.13
324.48 K | 281.42
324.98 K | 281.56
325.48 K | 281.27
325.98 K | 281.99
326.48 K | 282.57
326.98 K | 282.14
327.48 K | 282.43
327.98 K | 282.57
328.48 K | 283.29
328.98 K | 283.15
329.48 K | 282.86
329.98 K | 283.29
330.48 K | 283.87
330.98 K | 284.01
331.48 K | 284.01
331.98 K | 284.16
332.48 K | 284.44
332.98 K | 284.16
333.48 K | 284.3
333.98 K | 284.01
334.48 K | 284.88
334.98 K | 285.74
335.48 K | 285.6
335.98 K | 285.89
336.48 K | 285.6
336.98 K | 285.89
337.48 K | 285.74
337.98 K | 285.6
338.48 K | 286.17
338.98 K | 286.32
339.48 K | 286.32
339.98 K | 286.03
340.48 K | 286.32
340.98 K | 285.74
341.48 K | 286.17
341.98 K | 286.46
342.48 K | 286.75
342.98 K | 285.89
343.48 K | 286.61
343.98 K | 286.9
344.48 K | 287.76
344.98 K | 288.34
345.48 K | 287.47
345.98 K | 288.63
346.48 K | 288.19
346.98 K | 287.9
347.48 K | 288.05
347.98 K | 288.48
348.48 K | 288.48
348.98 K | 288.19
349.48 K | 289.2
349.98 K | 289.2
350.48 K | 289.35
350.98 K | 289.2
351.48 K | 289.63
351.98 K | 289.2
352.48 K | 289.78
352.98 K | 290.5
353.48 K | 289.78
353.98 K | 290.36
354.48 K | 290.21
354.98 K | 289.92
355.48 K | 289.92
355.98 K | 289.78
356.48 K | 289.92
356.98 K | 291.08
357.48 K | 290.93
357.98 K | 290.64
358.48 K | 290.93
358.98 K | 290.79
359.48 K | 291.51
359.98 K | 292.09
360.48 K | 291.65
360.98 K | 292.09
361.48 K | 292.52
361.98 K | 291.51
362.48 K | 292.66
362.98 K | 292.81
363.48 K | 293.82
363.98 K | 293.53
364.48 K | 293.67
364.98 K | 294.25
365.48 K | 294.39
365.98 K | 295.4
366.48 K | 294.54
366.98 K | 295.83
367.48 K | 295.55
367.98 K | 295.98
368.48 K | 295.83
368.98 K | 296.84
369.48 K | 296.84
369.98 K | 296.27
370.48 K | 296.99
370.98 K | 296.27
371.48 K | 296.55
371.98 K | 296.84
372.48 K | 296.84
372.98 K | 296.84
373.48 K | 296.99
373.98 K | 297.13

CC(=O)CCC(=O)O [4-oxopentanoic acid]
[1]
Conditions | Critical pressure [kPa] | Critical temperature [K]
– | 5310 | 766

[2], Metastable liquid
Conditions | molar heat capacity at constant pressure [J/K/mol]
302.62 K | 245.93
303.12 K | 246.16
303.62 K | 246.05
304.12 K | 246.28
304.62 K | 246.16
305.12 K | 246.51
305.62 K | 246.4
306.12 K | 246.86
306.62 K | 246.86
307.12 K | 246.86
307.62 K | 246.86
308.12 K | 246.98
308.62 K | 247.44
309.12 K | 247.09
309.62 K | 247.33
310.12 K | 247.44
310.62 K | 248.02
311.12 K | 247.91
311.62 K | 247.91
312.12 K | 247.91
312.62 K | 247.91
313.12 K | 247.56
313.62 K | 247.91
314.12 K | 248.25
314.62 K | 248.37
315.12 K | 248.49
315.62 K | 248.83
316.12 K | 248.95
316.62 K | 249.53
317.12 K | 249.65
317.62 K | 249.76
318.12 K | 250.46
318.62 K | 250.23
319.12 K | 250
319.62 K | 250.34
320.12 K | 250.11
320.62 K | 250.46
321.12 K | 250.34
321.62 K | 250.46
322.12 K | 250.58
322.62 K | 250.46
323.12 K | 251.16
323.62 K | 251.04
324.12 K | 251.27
324.62 K | 251.51
325.12 K | 251.27
325.62 K | 251.39
326.12 K | 251.74
326.62 K | 252.2
327.12 K | 251.85
327.62 K | 251.85
328.12 K | 251.85
328.62 K | 252.09
329.12 K | 252.32
329.62 K | 251.85
330.12 K | 252.55
330.62 K | 252.55
331.12 K | 252.67
331.62 K | 253.25
332.12 K | 253.6
332.62 K | 253.83
333.12 K | 254.06
333.62 K | 254.29
334.12 K | 254.06
334.62 K | 254.18
335.12 K | 254.41
335.62 K | 254.41
336.12 K | 254.87
336.62 K | 254.64
337.12 K | 255.11
337.62 K | 255.45
338.12 K | 255.22
338.62 K | 255.22
339.12 K | 255.57
339.62 K | 255.8
340.12 K | 256.03
340.62 K | 256.5
341.12 K | 256.73
341.62 K | 257.08
342.12 K | 257.43
342.62 K | 257.54
343.12 K | 257.66
343.62 K | 257.89
344.12 K | 257.89
344.62 K | 257.31
345.12 K | 257.43
345.62 K | 257.54
346.12 K | 257.89
346.62 K | 258.24
347.12 K | 258.59
347.62 K | 258.7
348.12 K | 258.59
348.62 K | 258.82
349.12 K | 258.94
349.62 K | 258.82
350.12 K | 258.94
350.62 K | 259.17
351.12 K | 259.17
351.62 K | 259.29
352.12 K | 260.21
352.62 K | 260.1
353.12 K | 259.87
353.62 K | 260.33
354.12 K | 260.45
354.62 K | 259.75
355.12 K | 260.21
355.62 K | 260.45
356.12 K | 260.79
356.62 K | 260.79
357.12 K | 260.56
357.62 K | 260.79
358.12 K | 260.45
358.62 K | 260.56
359.12 K | 261.03
359.62 K | 260.68
360.12 K | 260.79
360.62 K | 261.03
361.12 K | 261.38
361.62 K | 261.61
362.12 K | 261.96
362.62 K | 262.07
363.12 K | 262.07
363.62 K | 262.07
364.12 K | 262.88
364.62 K | 262.77
365.12 K | 263.12
365.62 K | 263.7
366.12 K | 264.39
366.62 K | 264.39
367.12 K | 263.93
367.62 K | 263.47
368.12 K | 263.12
368.62 K | 263.12
369.12 K | 263.47
369.62 K | 263.47
370.12 K | 263.7
370.62 K | 263.7
371.12 K | 263.93
371.62 K | 264.05
372.12 K | 264.28
372.62 K | 264.05
373.12 K | 264.28
373.62 K | 264.28
374.12 K | 264.51
